Measured values from ChEMBL document CHEMBL1129671, “Substituted (pyrroloamino)pyridines: potential agents for the treatment of Alzheimer's disease” (J Med Chem, 1996).

How the values were obtained:
[1] = biological target: T1, Adrenergic receptor alpha-2 (Rattus norvegicus, UniProt P22086+P19328+P22909); experiment: Compound was tested for inhibition of [3H]clonidine against Alpha-2 adrenergic receptor from rat cortical membranes using in vitro adrenergic receptor binding assay.; assay type: cell membranes, Membrane
T1 sequence (P22086 whole entry): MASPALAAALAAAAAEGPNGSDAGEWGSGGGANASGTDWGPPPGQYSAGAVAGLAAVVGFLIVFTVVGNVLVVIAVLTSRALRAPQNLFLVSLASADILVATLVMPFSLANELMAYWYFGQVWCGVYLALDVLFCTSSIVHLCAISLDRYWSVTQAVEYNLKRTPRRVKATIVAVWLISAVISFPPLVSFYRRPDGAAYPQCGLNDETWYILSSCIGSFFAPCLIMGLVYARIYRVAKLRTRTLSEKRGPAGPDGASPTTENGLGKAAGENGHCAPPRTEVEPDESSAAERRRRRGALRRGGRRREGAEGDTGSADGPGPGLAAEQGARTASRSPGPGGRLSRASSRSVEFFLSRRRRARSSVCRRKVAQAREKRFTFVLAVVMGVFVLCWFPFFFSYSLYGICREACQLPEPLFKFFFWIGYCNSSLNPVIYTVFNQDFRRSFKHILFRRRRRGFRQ
T1 sequence (P19328 whole entry): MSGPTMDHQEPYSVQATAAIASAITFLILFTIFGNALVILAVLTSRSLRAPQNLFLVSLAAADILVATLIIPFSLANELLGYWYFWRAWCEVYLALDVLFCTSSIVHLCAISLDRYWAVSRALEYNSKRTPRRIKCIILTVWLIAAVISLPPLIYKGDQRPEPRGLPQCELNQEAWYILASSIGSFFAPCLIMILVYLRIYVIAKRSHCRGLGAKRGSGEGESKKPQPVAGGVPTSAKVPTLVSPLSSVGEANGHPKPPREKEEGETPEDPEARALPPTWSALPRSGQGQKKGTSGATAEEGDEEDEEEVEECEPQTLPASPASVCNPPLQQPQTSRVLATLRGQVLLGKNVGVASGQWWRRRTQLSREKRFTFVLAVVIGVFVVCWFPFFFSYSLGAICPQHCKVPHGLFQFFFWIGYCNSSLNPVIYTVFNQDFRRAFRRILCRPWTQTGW
T1 sequence (P22909 whole entry): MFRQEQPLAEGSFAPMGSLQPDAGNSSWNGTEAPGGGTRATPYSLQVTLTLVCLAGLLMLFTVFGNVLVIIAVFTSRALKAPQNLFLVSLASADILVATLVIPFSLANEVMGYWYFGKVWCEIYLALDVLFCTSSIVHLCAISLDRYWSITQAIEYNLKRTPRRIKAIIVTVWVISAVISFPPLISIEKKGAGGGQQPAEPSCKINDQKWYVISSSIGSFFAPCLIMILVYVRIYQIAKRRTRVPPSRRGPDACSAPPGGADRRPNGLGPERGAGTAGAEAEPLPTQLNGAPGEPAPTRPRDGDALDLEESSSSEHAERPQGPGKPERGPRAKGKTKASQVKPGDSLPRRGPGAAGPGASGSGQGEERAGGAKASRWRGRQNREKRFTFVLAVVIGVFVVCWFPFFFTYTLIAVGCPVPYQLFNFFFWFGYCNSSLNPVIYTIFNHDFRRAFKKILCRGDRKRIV

Mus musculus [2] = experiment: Evaluated for the prevention of TBZ ptosis by intraperitoneal administration in mice; assay type: functional; settings: ip
Acetylcholinesterase = biological target: T2, Acetylcholinesterase (Rattus norvegicus, UniProt P37136); experiment: In vitro inhibition of Acetylcholinesterase from rat striatum
T2 sequence (P37136 whole entry): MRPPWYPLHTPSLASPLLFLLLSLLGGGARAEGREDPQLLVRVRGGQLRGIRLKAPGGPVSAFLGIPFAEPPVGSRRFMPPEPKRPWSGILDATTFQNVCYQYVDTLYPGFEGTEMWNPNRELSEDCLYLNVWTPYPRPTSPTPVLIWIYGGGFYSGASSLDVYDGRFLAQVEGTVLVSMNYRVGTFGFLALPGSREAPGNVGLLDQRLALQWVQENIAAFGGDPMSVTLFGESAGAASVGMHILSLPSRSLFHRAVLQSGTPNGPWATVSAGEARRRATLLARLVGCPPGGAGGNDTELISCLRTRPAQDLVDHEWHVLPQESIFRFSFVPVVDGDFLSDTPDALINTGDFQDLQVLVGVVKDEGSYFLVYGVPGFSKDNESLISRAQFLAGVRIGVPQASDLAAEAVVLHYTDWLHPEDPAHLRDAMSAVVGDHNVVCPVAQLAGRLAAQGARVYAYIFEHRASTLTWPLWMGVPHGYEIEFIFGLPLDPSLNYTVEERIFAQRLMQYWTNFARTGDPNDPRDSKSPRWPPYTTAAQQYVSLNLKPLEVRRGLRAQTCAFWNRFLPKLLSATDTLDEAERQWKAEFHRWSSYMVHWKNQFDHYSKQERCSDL

Mus musculus [3] = experiment: Antagonistic activity against scopolamine-induced behavioral deficits in mice by subcutaneous administration at a concentration of 5.0 mg/kg; assay type: functional
Mus musculus [4] = experiment: Antagonistic activity against scopolamine-induced behavioral deficits in mice by subcutaneous administration at a concentration of 1.25 mg/kg; assay type: functional
Mus musculus [5] = experiment: Antagonistic activity against scopolamine-induced behavioral deficits in mice by subcutaneous administration at a concentration of 2.5 mg/kg; assay type: functional
Rattus norvegicus [6] = species on record: Rattus norvegicus; experiment: Compound was tested for inhibition of [3H]5-HT against rat whole brain using in vitro biogenic amine uptake assay using rat brain synaptosomes.; assay type: functional
[7] = biological target: T3, Muscarinic acetylcholine receptor M1 (Rattus norvegicus, UniProt P08482); experiment: Compound was tested for inhibition of [3H]pirenzepine binding against Muscarinic acetylcholine receptor M1 from rat cortical membranes using in vitro cholinergic receptor binding assay.; assay type: cell membranes, Membrane
T3 sequence (P08482 whole entry): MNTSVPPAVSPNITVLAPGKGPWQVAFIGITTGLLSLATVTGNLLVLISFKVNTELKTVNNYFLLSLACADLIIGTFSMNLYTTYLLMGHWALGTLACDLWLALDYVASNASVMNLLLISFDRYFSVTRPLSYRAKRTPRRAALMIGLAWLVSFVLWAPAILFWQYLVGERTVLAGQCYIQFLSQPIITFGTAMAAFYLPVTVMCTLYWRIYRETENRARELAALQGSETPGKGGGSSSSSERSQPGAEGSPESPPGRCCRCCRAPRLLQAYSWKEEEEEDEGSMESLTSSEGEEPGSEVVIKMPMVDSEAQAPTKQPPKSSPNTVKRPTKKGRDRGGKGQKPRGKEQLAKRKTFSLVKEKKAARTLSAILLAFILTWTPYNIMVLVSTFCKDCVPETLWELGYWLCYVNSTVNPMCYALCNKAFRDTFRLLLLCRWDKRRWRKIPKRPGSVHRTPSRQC

Mus musculus [8] = experiment: Antagonistic activity against scopolamine-induced behavioral deficits in mice by subcutaneous administration at a concentration of 0.31 mg/kg; assay type: functional
[9] = biological target: Muscarinic acetylcholine receptor; experiment: Inhibition of radioligand [3H]QNB binding to muscarinic acetylcholine receptor in the rat forebrain in the presence of zinc
Mus musculus [10] = experiment: Antagonistic activity against scopolamine-induced behavioral deficits in mice by subcutaneous administration at a concentration of 0.16 mg/kg; assay type: functional
Rattus norvegicus [11] = species on record: Rattus norvegicus; experiment: Compound was tested for inhibition of [3H]dopamine against rat striatum using in vitro biogenic amine uptake assay using rat brain synaptosomes.; assay type: functional

C=Cc1cccn1N(C)c1ccncc1
IC50 [1]: 0.21 µM | ED50 (Mus musculus [2]): 8.3 mg/kg | IC50 (Acetylcholinesterase): > 100 µM | Response (Mus musculus [3]): 20% | Response (Mus musculus [4]): 33% | Response (Mus musculus [5]): 27% | IC50 (Rattus norvegicus [6]): > 20 µM | IC50 [7]: 5.1 µM | Response (Mus musculus [8]): 33% | IC50 [9]: 18 µM | Response (Mus musculus [10]): 27% | IC50 (Rattus norvegicus [11]): > 20 µM
